Reference: PubChem BioAssay AID1963847 (Molecular Pharmacology Branch, DTP, NCI, 2024)

Test system: 415267-285-R-J2-PDC complex spheroid viability
Test: Anticancer human tumor 415267-285-R-J2-PDC patient-derived breast carcinoma cell line growth inhibition [POLQ]
Settings: for IC50: curve of first compound; for viability, T/C: stronger effect = lower value
Outline: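 Complex spheroid viability model combining PDC tumour cells with endothelial (HUVEC) and MSC stromal cells. Novobiocin, ART-558 or RP6685 were tested singly and in combination with standard and investigational anticancer drugs. Each was titrated in half-log steps from near clinical Cmax, or from 10 microM where Cmax was unknown.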

[1] = second compound 0.0316 µM, first compound 0.0316 µM
[2] = second compound 0.0316 µM, first compound 0.1 µM
[3] = second compound 0.0316 µM, first compound 0.316 µM
[4] = second compound 0.0316 µM, first compound 1 µM
[5] = second compound 0.0316 µM, first compound 3.16 µM
[6] = second compound 0.0316 µM, first compound 10 µM
[7] = second compound 0.1 µM, first compound 0.0316 µM
[8] = second compound 0.1 µM, first compound 0.1 µM
[9] = second compound 0.1 µM, first compound 0.316 µM
[10] = second compound 0.1 µM, first compound 1 µM
[11] = second compound 0.1 µM, first compound 3.16 µM
[12] = second compound 0.1 µM, first compound 10 µM
[13] = second compound 0.316 µM, first compound 0.0316 µM
[14] = second compound 0.316 µM, first compound 0.1 µM
[15] = second compound 0.316 µM, first compound 0.316 µM
[16] = second compound 0.316 µM, first compound 1 µM
[17] = second compound 0.316 µM, first compound 3.16 µM
[18] = second compound 0.316 µM, first compound 10 µM
[19] = second compound 1 µM, first compound 0.0316 µM
[20] = second compound 1 µM, first compound 0.1 µM
[21] = second compound 1 µM, first compound 0.316 µM
[22] = second compound 1 µM, first compound 1 µM
[23] = second compound 1 µM, first compound 3.16 µM
[24] = second compound 1 µM, first compound 10 µM
[25] = second compound 3.16 µM, first compound 0.0316 µM
[26] = second compound 3.16 µM, first compound 0.1 µM
[27] = second compound 3.16 µM, first compound 0.316 µM
[28] = second compound 3.16 µM, first compound 1 µM
[29] = second compound 3.16 µM, first compound 3.16 µM
[30] = second compound 3.16 µM, first compound 10 µM
[31] = second compound 10 µM, first compound 0.0316 µM
[32] = second compound 10 µM, first compound 0.1 µM
[33] = second compound 10 µM, first compound 0.316 µM
[34] = second compound 10 µM, first compound 1 µM
[35] = second compound 10 µM, first compound 3.16 µM
[36] = second compound 10 µM, first compound 10 µM
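Also: spheroids exposed to compounds for one week before readout.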
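For viability, T/C in this document: luminescence used as stand-in measure of viable cells; 100% = DMSO vehicle control viability.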

CC1COCCN1c1cc(C2(O)CC3CCC(C2)O3)c2cnn(-c3ccn[nH]3)c2n1 (stereo unspecified) + Cc1cccc(N(C)C(=O)C2C(O)CCN2c2nc(C)cc(C(F)(F)F)c2C#N)c1
IC50 (second compound 0.0316 µM): < 0.0316 µM
IC50 (second compound 0.1 µM): < 0.0316 µM
IC50 (second compound 0.316 µM): < 0.0316 µM
IC50 (second compound 1 µM): < 0.0316 µM
IC50 (second compound 3.16 µM): < 0.0316 µM
IC50 (second compound 10 µM): < 0.0316 µM
viability, T/C [1]: 18.2%
viability, T/C [2]: 7.78%
viability, T/C [3]: 5.17%
viability, T/C [4]: 4.79%
viability, T/C [5]: 4.69%
viability, T/C [6]: 4.06%
viability, T/C [7]: 17.1%
viability, T/C [8]: 6.52%
viability, T/C [9]: 4.78%
viability, T/C [10]: 4.34%
viability, T/C [11]: 5.05%
viability, T/C [12]: 5.28%
viability, T/C [13]: 17.9%
viability, T/C [14]: 5.44%
viability, T/C [15]: 5.64%
viability, T/C [16]: 4.91%
viability, T/C [17]: 4.67%
viability, T/C [18]: 4.41%
viability, T/C [19]: 24.7%
viability, T/C [20]: 6.22%
viability, T/C [21]: 4.58%
viability, T/C [22]: 4.12%
viability, T/C [23]: 4.85%
viability, T/C [24]: 5.19%
viability, T/C [25]: 20.4%
viability, T/C [26]: 6.14%
viability, T/C [27]: 5.01%
viability, T/C [28]: 4.84%
viability, T/C [29]: 4.41%
viability, T/C [30]: 4.56%
viability, T/C [31]: 21.4%
viability, T/C [32]: 6.79%
viability, T/C [33]: 5.41%
viability, T/C [34]: 5.44%
viability, T/C [35]: 4.9%
viability, T/C [36]: 4.36%

O=C(c1cc(Cc2n[nH]c(=O)c3ccccc23)ccc1F)N1CCN(C(=O)C2CC2)CC1 + Cc1cccc(N(C)C(=O)C2C(O)CCN2c2nc(C)cc(C(F)(F)F)c2C#N)c1
IC50 (second compound 0.0316 µM): > 10 µM
IC50 (second compound 0.1 µM): > 10 µM
IC50 (second compound 0.316 µM): > 10 µM
IC50 (second compound 1 µM): > 10 µM
IC50 (second compound 3.16 µM): > 10 µM
IC50 (second compound 10 µM): > 10 µM
viability, T/C [1]: 87.6%
viability, T/C [2]: 101%
viability, T/C [3]: 102%
viability, T/C [4]: 99.7%
viability, T/C [5]: 103%
viability, T/C [6]: 82.9%
viability, T/C [7]: 94%
viability, T/C [8]: 96.2%
viability, T/C [9]: 96.5%
viability, T/C [10]: 106%
viability, T/C [11]: 91.2%
viability, T/C [12]: 78.3%
viability, T/C [13]: 95.3%
viability, T/C [14]: 98.3%
viability, T/C [15]: 99.4%
viability, T/C [16]: 111%
viability, T/C [17]: 95.8%
viability, T/C [18]: 86.6%
viability, T/C [19]: 104%
viability, T/C [20]: 95.1%
viability, T/C [21]: 95.8%
viability, T/C [22]: 98.2%
viability, T/C [23]: 92.9%
viability, T/C [24]: 76.8%
viability, T/C [25]: 99.3%
viability, T/C [26]: 98.6%
viability, T/C [27]: 88.5%
viability, T/C [28]: 95.9%
viability, T/C [29]: 87.7%
viability, T/C [30]: 72.9%
viability, T/C [31]: 100%
viability, T/C [32]: 85.1%
viability, T/C [33]: 87.7%
viability, T/C [34]: 98%
viability, T/C [35]: 90%
viability, T/C [36]: 68%

CCc1cc2c(N3CCc4c(cc(Cn5ccnc5)cc4-c4cn(C)nc4C(F)(F)F)C3=O)cc(C)nc2c(OC)n1 + COC1C(OC(N)=O)C(O)C(Oc2ccc3c(O)c(NC(=O)c4ccc(O)c(CC=C(C)C)c4)c(=O)oc3c2C)OC1(C)C
IC50 (second compound 0.0316 µM): > 10 µM
IC50 (second compound 0.1 µM): > 10 µM
IC50 (second compound 0.316 µM): > 10 µM
IC50 (second compound 1 µM): > 10 µM
IC50 (second compound 3.16 µM): > 10 µM
IC50 (second compound 10 µM): > 10 µM
viability, T/C [1]: 75.5%
viability, T/C [2]: 81.8%
viability, T/C [3]: 84.8%
viability, T/C [4]: 76.1%
viability, T/C [5]: 76%
viability, T/C [6]: 64.4%
viability, T/C [7]: 84%
viability, T/C [8]: 81.9%
viability, T/C [9]: 80.6%
viability, T/C [10]: 75.6%
viability, T/C [11]: 72.9%
viability, T/C [12]: 66.8%
viability, T/C [13]: 93.5%
viability, T/C [14]: 79.9%
viability, T/C [15]: 74.2%
viability, T/C [16]: 69.5%
viability, T/C [17]: 83.7%
viability, T/C [18]: 65.9%
viability, T/C [19]: 94.1%
viability, T/C [20]: 79.6%
viability, T/C [21]: 68.1%
viability, T/C [22]: 73.9%
viability, T/C [23]: 73.6%
viability, T/C [24]: 55.5%
viability, T/C [25]: 92.3%
viability, T/C [26]: 98.6%
viability, T/C [27]: 73.8%
viability, T/C [28]: 85.3%
viability, T/C [29]: 80.9%
viability, T/C [30]: 73.5%
viability, T/C [31]: 90.2%
viability, T/C [32]: 85.9%
viability, T/C [33]: 88.3%
viability, T/C [34]: 82%
viability, T/C [35]: 68.5%
viability, T/C [36]: 59.7%
